Measurements published in patent US20180092908A1, “SMALL MOLECULE OXIDIZERS OF PDI AND THEIR USE” (THE TRUSTEES OF COLUMBIA UNIVERSITY IN THE CITY OF NEW YORK, priority 2015, published 2018).
Values after ≈ are worked out from the molar mass of the structure shown. Read-outs that look alike come from different tables or passages of the source.

Assays:
physchem = conditions: organic solvent or mixture
[1] = biological target: T1, recombinant catalytic a domain of human PDI A1 (PDIa) (Homo sapiens, UniProt P07237); assay: Insulin aggregation assay (PDIa reductase activity); format: biochemical; conditions: Table 5
T1 construct: made in house; host or cells: Escherichia coli BL21-Gold (DE3)
T1 sequence (P07237 with tags, fused parts or gaps): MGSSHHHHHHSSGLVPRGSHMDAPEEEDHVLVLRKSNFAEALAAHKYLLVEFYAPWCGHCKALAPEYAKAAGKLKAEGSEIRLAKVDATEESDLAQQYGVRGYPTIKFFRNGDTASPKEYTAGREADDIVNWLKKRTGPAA
Text: In this insulin aggregation assay (Xu et al., 2012; Jasuja et al., 2012; Khan et al., 2011; Smith et al., 2004), PDIa reduced the two disulfide bonds between the α- and β-chains of insulin, causing the β-chain to aggregate and precipitate, resulting in an increase in absorbance at 650 nm.
To investigate the mode of binding further and to determine whether the binding was reversible or irreversible, the recovery of enzymatic activity of PDIa after dilution of pre-formed concentrated PDIa-LOC14 complexes was analyzed. LOC14 (750 μM) was incubated with a concentrated solution of PDIa (500 μM). The mixture was then diluted 100-fold and PDI's enzymatic activity was measured in the insulin reduction assay. As a control, the same procedure was also performed on the sample containing an irreversible inhibitor, 16F16 (16F16 at 750 μM and PDIa at 500 μM). […] This illustrated that unlike 16F16, LOC14 binding to PDIa is reversible.

PC12 mHTT^Q103 cells = assay: Rescue of PC12 cells from mHTT^Q103 induced cell death (Alamar blue viability); format: cell-based; conditions: Rattus norvegicus, PC-12; Table 5; read-out: Cell Viability Assay EC50
Text: PC12 mHTT^Q103 cells were a gift from Erik S. Schweitzer (UCLA School of Medicine, Los Angeles, Calif.). These cells are stably transfected with the first exon of human HTT gene containing the pathogenic 103 CAG/CAA repeat expansion, under the control of the ecdysteroid promoter (Aiken et al., 2004). The plasmid also contains a Bombyx mori ecdysone receptor gene fused at N-terminal with VP16 transactivation domain (Suhr et al., 1998; Vilaboa et al., 2011). Addition of the ecdysone analog, tebufenozide, to the cell culture medium is used to initiate the transcription of mutant HTT (Aiken et al., 2004).
PC12 mHTT^Q103 cells were cultured in DMEM containing 4.5 g/I glucose, 25 mM HEPES, sodium pyruvate, and no L-glutamine (Mediatech, cat. no. 15-018-CV), supplemented with 10% (v/v) Cosmic Calf serum, 2 mM L-glutamine, 100 units/mL of penicillin-streptomycin, and 0.5 mg/ml active geneticin. Cells were grown at 37° C., 9.5% CO2, and the medium was replaced with fresh medium every 2-3 days. To induce mHTT^Q103 expression for experiments, tebufenozide, a gift from Lynne Moore and Fred H. Gage (The Salk Institute for Biological Studies, La Jolla, Calif.), was added to the medium at 200 nM final concentration from 1 mM stock in 85% ethanol.
LOC mother plates with compounds at 4 mg/ml were thawed and spun down (1000 rpm, 20° C., 1 min) prior to use. Biomek FX (Beckman Coulter) robotic liquid dispenser was used to handle all liquid transferring and mixing. […] Two fold serial dilution was performed across five daughter plates by transferring 50 μl of compounds (at […]) from the D1 plate into 50 μl of PC12 medium in daughter plate D2, mixing, and then repeating the process for the remaining three plates. Daughter plate D1 with compounds at […], daughter plate D3 with compounds at 20 μl/ml and daughter plate D5 with compounds at 5 μl/ml were then used for the screen. Assay plates were set up by seeding tebufenozide-induced PC12 mHTT^Q103 cells into 384-well black, clear-bottom plates (Corning Inc. cat. no. 3712) at a density of 7,500 cells per well in 57 μl PC12 medium without geneticin. Three microliters of compound from the daughter plates (D1, D3, and D5) were added to the assay plates for a final compound concentration of 4 μl/ml, 1 μl/ml, and 0.25 μl/ml. Four wells containing uninduced PC12 mHTT^Q103 cells and four wells containing medium only, were also included on each plate as controls. The assay plates were incubated at 37° C., 9.5% CO2 for 48 hours. Twenty microliters of 40% Alamar blue (Life Technologies cat. no. DAL1100) solution in PC12 medium was added to each well (1:10 final dilution) and the plates were incubated for an additional 12-24 hours at 37° C., 9.5% CO2. Alamar blue fluorescence was read on a fluorescence plate reader (PerkinElmer Victor3) with 530 nm excitation filter and 590 nm emission filter. Each compound concentration was tested in triplicate.
The follow-up testing of primary screen hits was performed in a similar way. Fresh powder stocks of primary hits were re-ordered from vendors, dissolved in DMSO and tested in a two-fold serial dilution across 10 wells in both tebufenozide-induced and uninduced PC12 mHTT^Q103 cells. Dose-response curves were plotted as mean±SD and fit to either four-parameter sigmoidal (for uninduced cells) or bell-shaped (induced) function using Prism (GraphPad Software).
A cascade of two assays was used, involving both a phenotypic high-throughput screening (HTS) assay and an in vitro PDI reductase assay, to identify neuroprotective PDI-inhibiting compounds. […] Alamar blue was used as a fluorescent readout for viability after 48 hours of compound treatment and mHTT^Q103 induction. […] All the candidate hit compounds were re-tested in a two-fold dilution series.

[2] = biological target: T2, human catalytic PDI A1 a domain (PDIa) (Homo sapiens, UniProt P07237); assay: Isothermal titration calorimetry (ITC) binding to PDIa; conditions: PDIa
T2 construct: made in house; host or cells: Escherichia coli BL21-Gold (DE3)
T2 sequence (P07237 with tags, fused parts or gaps): as above
Procedure: All ITC experiments were carried out at 25° C. on MicoCal Auto-ITC200 system (GE Healthcare). Reduced PDIa was dialyzed into ITC buffer (20 mM sodium phosphate buffer pH 7.8) and loaded into a sample cell at 40 μM concentration. The compound solution was loaded into a syringe at 400 μM in the same ITC buffer with a final DMSO concentration at 0.4% (v/v). ITC titration experiments were carried out at 25° C. with 19 injections, 2 μl per injection, and 180 seconds between each injection. The reference cell power was set to 5 μcal/sec. A control experiment was performed for each compound, where each compound was titrated into buffer to account for heat released due to dilution. This background was subtracted from test data before a final dissociation constant was obtained. Data were analyzed using a one-site binding model in Origin 7.1 software. […] Gibbs free energy, ΔG, was calculated from equation ΔG=ΔH−TΔS. All other parameters, Ka, n, ΔH, ΔS, were determined directly from the titration data.
For ITC experiments with 16F16 pre-treatment, 40 μM PDIa (after dialysis into ITC buffer) was treated with 200 μM 16F16 for 12-15 hours at 4° C. Next day the whole solution was loaded into the sample cell. LOC14 at 400 μM in ITC buffer was loaded into syringe and titrated into PDIa+16F16 loaded cell. For control experiments, ITC buffer with 200 μM 16F16 was used in the cell, while 400 μM LOC14 in ITC buffer was used in the syringe.
The binding mode of LOC14 to PDIa was next investigated using isothermal titration calorimetry (ITC). ITC measures the heat released or absorbed during a biomolecular interaction. It is a direct analytical method for determining the binding and thermodynamic parameters, such as reaction stoichiometry (n), binding constants (Ka and Kd), enthalpy (ΔH), entropy (ΔS), and free energy (ΔG) of an interaction.

Solubility = conditions: DMSO, Table 5
[3] = Table 5, read-out: ITC Assay KD

| SMILES | solubility (physchem; DMSO) [mM] | Insulin Assay (either active or inactive) [1] | EC50 (PC12 mHTT^Q103 cells) [nM] | ITC KD ([2]; Table 4) | ITC Assay KD ([2]; Table 5) | Solubility in DMSO (Solubility) [mM in DMSO] | Kd ([2]; Table 4, read-out: ITC KD) [nM] | Kd [2, 3] [nM] | solubility (physchem) [mM] |
| --- | --- | --- | --- | --- | --- | --- | --- | --- | --- |
| Cc1nc2s[nH]c(=O)c2c(C)c1C [LC-51] | 10 (≈ 1940 µg/mL) | Active | 2200 | – | – | – | – | – | – |
| O=C(Nc1ccccc1)n1sc2ccccc2c1=O [LC-6, 3-oxo-N-phenylbenzo[d]isothiazole-2(3H)-carboxamide] | 50 (≈ 13500 µg/mL) | not active | 476 | KD = not active | KD = N/A irreversible or not active | – | – | – | – |
| Cc1nnc2sn(C(C)N3CCC(C(=O)C4CC4)CC3)c(=O)c2c1C (stereo not shown) [LC-59] | – | Active | 10600 | – | – | 100 | – | – | – |
| O=c1c2ccccc2sn1CN1CCSCC1 [LC-3] | – | Active | 463 | – | – | 100 | 91.7 | 91.7 | – |
| CC(C)(C)OC(=O)N1CCC(COc2nsc3ccccc23)CC1 [LC-16] | 50 (≈ 17400 µg/mL) | not active | > 50000 | – | KD = N/A irreversible or not active | – | – | – | – |
| O=c1[nH]sc2ncccc12 [LC-47] | 50 (≈ 7610 µg/mL) | not active | > 50000 | – | KD = N/A irreversible or not active | – | – | – | – |
| O=c1c2ccccc2sn1CN1CCC(O)CC1 [LC-7] | – | Active | 441 | – | – | 100 | 216 | 216 | – |
| O=c1c2ccccc2sn1Cn1sc2ccccc2c1=O [LC-17, 2,2′-methylenebis(benzo[d]isothiazol-3(2H)-one)] | – | Active | 229 | – | – | 100 | – | 160 | – |
| O=C(C1CC1)N1CCN(C(=O)n2sc3ccccc3c2=O)CC1 [LC-14] | 30 (≈ 9940 µg/mL) | not active | > 50000 | – | KD = N/A irreversible or not active | – | – | – | – |
| Cc1cc(C)c2c(=O)ssc2n1 [LC-50] | – | Active | 5180 | – | – | 100 | – | – | – |
| Cc1nc2sn(CN3CCN(C(=O)C4CC4)CC3)c(=O)c2c(C)c1C [LC-52] | 10 (≈ 3600 µg/mL) | Active | 3570 | – | – | – | – | – | – |
| O=C(C1CC1)N1CCN(Cn2sc3ccc(Cl)cc3c2=O)CC1 [LC-15, 5-chloro-2-((4-(cyclopropanecarbonyl)piperazin-1-yl)methyl)benzo[d]isothiazol-3(2H)-one] | 20 (≈ 7040 µg/mL) | Active | 467 | – | – | – | 114 | 114 | – |
| O=c1c2ccccc2sn1-c1ccc(N2CCOCC2)cc1 [LC-27] | 30 (≈ 9370 µg/mL) | not active | 1830 | – | KD = N/A irreversible or not active | – | – | – | – |
| CN1CCN(Cn2sc3ccccc3c2=O)CC1 [LC-2] | – | Active | 415 | – | – | 100 | 134 | 91.7 | – |
| Cc1cc(C)c2c(=O)n(CN3CCN(C(=O)C4CC4)CC3)sc2n1 [LC-53] | 25 (≈ 8660 µg/mL) | Active | 4200 | – | – | – | – | – | – |
| CC(C)(C)OC(=O)N1CCN(Cn2sc3ccccc3c2=O)CC1 [LC-10] | – | Active | 581 | – | – | 100 | 123 | 123 | – |
| O=c1c2ccccc2sn1CN1CCCCC1 [LC-1] | – | Active | 459 | – | – | 100 | 107 | 107 | – |
| CC(=O)c1ccc(N2CCN(Cn3sc4ccccc4c3=O)CC2)cc1 [LC-13] | – | Active | 514 | – | – | 100 | 190 | 190 | – |
| O=C(Nc1ccccc1)c1ccccc1S [LC-19] | – | not active | – | – | KD = N/A irreversible or not active | – | – | – | 50 (≈ 11500 µg/mL) |
| O=c1c2ccccc2sn1CN1CCC(CO)CC1 [LC-4] | – | Active | 343 | – | – | 100 | 265 | 265 | – |
| O=c1c2ccccc2sn1-c1ccc(Oc2ccccc2)cc1 [LC-37] | – | not active | 1680 | – | KD = N/A irreversible or not active | – | – | – | – |
| O=c1c2ccccc2sn1CN1CCN(c2ncccn2)CC1 [LC-12] | – | Active | 416 | – | – | 100 | 140 | 140 | – |
| O=c1c2ccccc2sn1-c1ccc(Cc2ccccc2)cc1 [LC-25] | – | not active | 1590 | – | KD = N/A irreversible or not active | – | – | – | – |
